This experiment deals with T1, garlic peroxidase (Allium sativum peroxidase).
T1 construct: gene class III plant peroxidase; native, partially purified from peeled garlic (ammonium sulphate, dialysis, Sephadex G-200)
Kind of experiment: absorbance change on o-dianisidine oxidation; Lineweaver-Burk plot. In kind it is biochemical. To be noted: co-substrate H2O2; 0.05 M sodium phosphate pH 6.0; 20-120 mM o-dianisidine; partially purified enzyme.

A word on the Km: it is the substrate concentration at which the rate is half of its maximum.

Structures are written as SMILES.

On to `COc1cc(-c2ccc(N)c(OC)c2)ccc1N` [o-dianisidine], for which the Km turned out to be 25 mM.

For the origin of these results see PMC4226186, “Biobleaching of Industrial Important Dyes with Peroxidase Partially Purified from Garlic” (The Scientific World Journal, 2014).
